This passage reports IC50 results from ChEMBL document CHEMBL1138382, “Tetrahydroquinoline sulfonamides as gamma-secretase inhibitors” (Bioorg Med Chem Lett, 2007).

One may read the IC50 as the point on the concentration scale where inhibition reaches its midpoint. Higher therefore signals weaker potency.

Each structure is given as a SMILES string.

The assay has as its target Gamma-secretase. In words: Inhibition of Gamma-secretase. The class given is protein-complex assay, Homo sapiens.
For the molecule `O=C(NCCO)OCC1CCc2ccccc2N1S(=O)(=O)c1ccc(Cl)cc1` (centres undefined), the IC50 was 4490 nM.

`CN(C)C1CCN(C(=O)OCC2CCc3ccccc3N2S(=O)(=O)c2ccc(Cl)cc2)CC1` (centres undefined) gave an IC50 of 629 nM. `O=C(OCC1CCc2ccccc2N1S(=O)(=O)c1ccc(Cl)cc1)N1CCC(N2CCCCC2)CC1` (single isomer, unassigned; enantiomer a) showed an IC50 of 39 nM. The molecule `NC1CCN(C(=O)OCC2CCc3ccccc3N2S(=O)(=O)c2ccc(Cl)cc2)CC1` (centres undefined) gave an IC50 of 680 nM.

`O=C(NCc1ccncc1)OCC1CCc2ccccc2N1S(=O)(=O)c1ccc(Cl)cc1` (centres undefined) displayed an IC50 of 1640 nM. Take `O=C(OCC1CCc2ccccc2N1S(=O)(=O)c1ccc(Cl)cc1)N1CCN(CCO)CC1` (centres undefined): 299 nM corresponded to half-maximal inhibition (IC50). Consider `O=C(OCC1CCc2c(F)cc(F)cc2N1S(=O)(=O)c1ccc(Cl)cc1)N1CCC(N2CCCCC2)CC1` (centres undefined), for which the half-inhibitory concentration (IC50) stood at 219 nM. In the case of `O=C(OCC1CCc2ccccc2N1S(=O)(=O)c1ccc(Cl)cc1)N1CCC(N2CCCC2)CC1` (centres undefined) it was 290 nM; in that of `O=C(OCC1CCc2cc(F)ccc2N1S(=O)(=O)c1ccc(Cl)cc1)N1CCC(N2CCCCC2)CC1` (centres undefined), more than 1000 nM; in that of `CCN(CCC1CCCN1C)C(=O)OCC1CCc2ccccc2N1S(=O)(=O)c1ccc(Cl)cc1` (centres undefined), 253 nM. In turn, `O=C(OCC1CCc2ccccc2N1S(=O)(=O)c1ccc(Cl)cc1)N1CCC(N2CCCCC2)CC1` (stereo in doubt; 26) displayed a half-maximal inhibitory concentration (IC50) of 73 nM.

Turning to `CCN(Cc1ccncc1)C(=O)OCC1CCc2ccccc2N1S(=O)(=O)c1ccc(Cl)cc1` (centres undefined), half-maximal inhibition (IC50) was put at 88 nM.

Molecule `O=C(NCc1ccc([N+](=O)[O-])cc1)OCC1CCc2ccccc2N1S(=O)(=O)c1ccc(Cl)cc1` (centres undefined) yielded an IC50 of 2960 nM. This IC50 is about 34-fold higher than that of the molecule before. In the case of `O=C(OCC1CCc2ccccc2N1S(=O)(=O)c1ccc(Cl)cc1)N1CCN(C2CCCCC2)CC1` (centres undefined) it was 540 nM. `CN1CCCC1CCNC(=O)OCC1CCc2ccccc2N1S(=O)(=O)c1ccc(Cl)cc1` (centres undefined) returned an IC50 of 504 nM. Molecule `CCN(Cc1ccnc(N)c1)C(=O)OCC1CCc2ccccc2N1S(=O)(=O)c1ccc(Cl)cc1` (centres undefined) came in with an IC50 of 580 nM. On to `O=C(OCC1CCc2ccc(F)cc2N1S(=O)(=O)c1ccc(Cl)cc1)N1CCC(N2CCCCC2)CC1` (centres undefined), for which the IC50 is 56 nM. With `O=C(OCC1CCc2ccccc2N1S(=O)(=O)c1ccc(Cl)cc1)N1CCC(N2CCCCCC2)CC1` (centres undefined), the half-inhibitory concentration (IC50) was found to be 255 nM. Molecule `CCCN1CCN(C(=O)OCC2CCc3ccccc3N2S(=O)(=O)c2ccc(Cl)cc2)CC1` (centres undefined) showed an IC50 of 440 nM. This IC50 is about 1.7-fold higher than that of the molecule before. In the case of `O=C(OCC1CCc2c(F)ccc(F)c2N1S(=O)(=O)c1ccc(Cl)cc1)N1CCC(N2CCCCC2)CC1` (centres undefined) it was 217 nM. Regarding `O=C(OCC1CCc2ccccc2N1S(=O)(=O)c1ccc(Cl)cc1)N1CCC(N2CCCCC2)CC1` (single isomer, unassigned; enantiomer b), the IC50 was more than 1000 nM. `CCN(CCCN1CCCC1)C(=O)OCC1CCc2ccccc2N1S(=O)(=O)c1ccc(Cl)cc1` (centres undefined) gave an IC50 of 172 nM. In turn, `O=C(NCCCN1CCCC1)OCC1CCc2ccccc2N1S(=O)(=O)c1ccc(Cl)cc1` (centres undefined) returned a half-inhibitory concentration (IC50) of 394 nM.

The molecule `O=C(NCCc1ccccc1)OCC1CCc2ccccc2N1S(=O)(=O)c1ccc(Cl)cc1` (centres undefined) showed a concentration for half-maximal inhibition (IC50) of 1100 nM.
